Results as given in US8496963B2, “Oral formulations of glycyl-2-methylprolyl-glutamate” (priority 2007, dated 2013).
Read-outs that look alike come from different tables or passages of the source. One block for each compound: values may come before it. Bridge positions count the residues as written; N and C are the ends. Square brackets hold non-standard residues; d marks the D form. Peptide text beside a SMILES is read from it. * marks the point of attachment. Ileψ(thiazoline)Cys = CC[C@H](C)[C@H](N)C1=N[C@H](C(=O)*)CS1; αMeP = C[C@@]1(C(=O)O)CCCN1; dOrn = NCCC[C@@H](N)C(=O)O

Experiments:
[1] = test system: Caco-2 cells; format: in vitro ADME, human
Description: The purpose of these studies was to determine the effect of pH on the degradation of G-2MePE by Caco-2 cells.
100 μg/ml G-2MePE was added to the apical side of confluent cultures of Caco-2 cells in different pH conditions. Samples were taken at 0, 15, 30, 45, 60, 90, 120, 150, 180, 210, 240 min later. Samples were centrifuged at 20,000 g for 15 min and 50 μl supernatant was injected to the column of HPLC. […] Peptidolytic activity and half-life of G-2MePE were then determined in different pH condition.

[2] = test system: Caco-2 cells; format: in vitro ADME, human; settings: Caco-2, pH 7.4
Description: Fresh medium was replaced every 2-3 days. Cells were cultured at 37° C. for 12-14 days for uptake assay study. The uptake assay study was commenced after cells reached confluency, i.e., after 12-14 days in culture. Each dish was washed with HEPES (pH 7.4). […] The cells were scraped off with a cell scraper into an extraction solution and centrifuged at 20,000 g for 20 min. […] The pellet was diluted by NaOH to determine the protein content by Lowry assay.

[3] = test system: Caco-2 cells; assay: Cytotoxicity: sulforhodamine B (SRB) growth inhibition of Caco-2 cells; settings: read-out: IC50 of G-2MePE, growth of Caco-2 cells
Description: (§1) The purpose of this study growth was to determine if GPE and/or G-2MePE can inhibit growth of cells.
(§2) The cells were fixed by TCA and SRB was added to each well. Cell-bound dye was extracted with Tris base buffer to solubilize the dye and the absorbance determined by a plate reader at 570 nm. Inhibition of growth was expressed as relative viability (% control) and the IC50 was calculated from the concentration-response curves after log/probit transformation.

[4] = in vitro; settings: human, Caco-2
Description: as §1, §2

[5] = test system: Caco-2 cell monolayer; assay: Stability of GPE and G-2MePE in the presence of Caco-2 cells; format: in vitro ADME, human; settings: 50-100 μg/ml, HBSS pH 7.4, HPLC
Description: The collected samples were extracted by adding 400 μl of 0.04M sulphuric acid into test tubes, each of which contained 50 μl of a sample. The test tubes were left on ice for 5 min and vortexed. The 50 μl of 10% sodium tungstate was added to each tube and the tubes were vortexed immediately and left on ice for 10 min, vortexed again and left on ice for another 10 min. The cells were centrifuged at 20,000 g at 4° C. for 20 min. The supernatant was collected for testing. […] The protein content of samples was measured by Lowry assay.

[6] = test system: Caco-2 cells
Description: as §1, §2

[7] = test system: Caco-2 epithelial cell layer; assay: Permeability of fluorescein and TEER across Caco-2 cells with permeation enhancers; format: in vitro ADME, human
Description: The purpose of this study was to determine the appearance permeation coefficient (Papp) and transepithelial electrical resistance (TEER) across confluent cultures of Caco-2 epithelial cells caused by a typical hydrophilic material.
Integrity of Caco-2 cell cultures was assessed by measuring the TEER and the leakage of ^14C-mannitol or fluorescein across confluent cultures. Inserts with confluent cell cultures and an electrical resistance of greater than 300 Ω/cm^2, were considered appropriate for these studies. Fluorescein or 0.5 μCi/50 μl of ^14C-mannitol was added to the apical cell and incubated for 1-4 hours. The acceptable leakage was considered to be <0.5-1%. 6 inserts with good integrity were chosen and then washed with transport buffer. The medium from all apical and basolateral wells was removed. The cell cultures were washed twice with warm 37° C. transport buffer.
The solution on the transwell receptor side was then replaced with 0.4 ml of fresh HBSS, and we collected 0.1 ml from the donor side (then replaced with 0.1 ml sodium fluorescein at the same concentration). The reaction was terminated from donor side by adding the same volume HCl (0.2M) or by 3:1 Acetonitril/methonal with 2% acetic acid to each sample. […] Supernatants were collected, dried by Speed Vacuum, diluted with mobile phase and the resulting sample was analysed by spectrofluorophotometer. The apparent permeability coefficient was used to compare the permeability between control and treatment groups (FIG. 4). Transepithelial electric resistance (TEER) was measured using a Millipore voltage meter at different time points.

[8] = test system: Caco-2 epithelial membrane; assay: Permeability of G-2MePE and TEER across Caco-2 cells with permeation enhancers; format: in vitro ADME, human
Description: The purpose of this study was to determine if permeability enhancers can increase transport of G-2MePE across Caco-2 cell layers.
G-2MePE was added in three or six replicates to the donor sides of Transwells containing Caco-2 cells in the absence or presence of various permeation enhancers (FIG. 4), 1.5 ml transport buffer was added to the receptor side. The Transwells were then left to incubate. […] After each sample was taken, 0.4 ml of fresh HBSS buffer was added to the side of the Transwell from which sample was taken. Subsequently, 0.1 ml donor solution was collected to measure the concentration of the intact G-2MePE. Following each sampling, 0.1 ml of G-2MePE at the same concentration was replaced.
Peptidolysis was terminated by adding the same volume of HCl (0.2M) to each sample. […] Supernatants were collected, dried by Speed Vacuum, diluted with mobile phase and analysed by spectrofluorophotometer. […] Transepthelial electric resistance (TEER) was measured using a Millipore voltage meter at different time points.

Structure (SMILES): C[C@@]1(C(=O)N[C@@H](CCC(=O)O)C(=O)O)CCCN1C(=O)CN [Formulation G-2MePE, Glycyl-2-Methylprolyl Glutamate] (H-Gly-[αMeP]-Glu-OH)
- pH at which G-2MePE is stable ([1]; Caco-2): ≤ 5.5
- degradation in basic conditions ([1]; Caco-2, pH 7): Moderate degradation
- uptake of G-2MePE by Caco-2 cells [2]: 1.3%
- IC50 ([3]; 24 hours): 4640 µM
- IC50 ([3]; 48 hours): 3660 µM
- IC50 ([3]; 72 hours): 2240 µM
- IC50 ([3]; 96 hours): 1090 µM
- IC50 ([3]; 120 hours): 1010 µM

- inhibition at 15 mM [4]: 35%
- metabolites identified in the presence of Caco-2 cells [5]: Four
- IC50 [6]: ≥ 15000 µM
Structure (SMILES): NCC(=O)N1CCC[C@H]1C(=O)N[C@@H](CCC(=O)O)C(=O)O [GPE, glycyl-prolyl-glutarnate]

Structure (SMILES): CCCCCCCCCC(=O)[O-].[Na+] [Sodium caprate]
- relative effect on fluorescein permeability ([7]; 20 mM caprate vs 20 mM taurocholate): greater than the effect of the same concentration of taurocholate
- TEER of Caco-2 cell layer ([7]; fluorescein transport experiment, 3 h, sodium caprate 10 or 20 mM, taurocholate 30 mM, EDTA 40 mM, SDA 1 mM): reduced the TEER
- permeability of the Caco-2 epithelial cell layer to fluorescein ([7]; sodium caprate 10 or 20 mM, taurocholate 30 mM, EDTA 40 mM, SDA 1 mM, 3 h): significantly (P<0.05) increased
- permeability of the Caco-2 epithelial membrane to G-2MePE ([8]; EDTA 30 mM, sodium caprate 20 mM, taurocholate 20 and 30 mM, citric acid 30 mM, bacitracin 3.5 mM): significantly increased
- TEER of Caco-2 cell layer ([8]; G-2MePE transport, EDTA 30 mM, sodium caprate 20 mM, taurocholate 20 & 30 mM, citric acid 30 mM): significantly reduced

- permeability of the Caco-2 epithelial membrane to G-2MePE ([8]; Caco-2): significantly increased
Structure (SMILES): CC[C@H](C)[C@H](N)C1=N[C@H](C(=O)N[C@@H](CC(C)C)C(=O)N[C@H](CCC(=O)O)C(=O)N[C@H](C(=O)N[C@H]2CCCCNC(=O)[C@H](CC(N)=O)NC(=O)[C@@H](CC(=O)O)NC(=O)[C@H](Cc3cnc[nH]3)NC(=O)[C@@H](Cc3ccccc3)NC(=O)[C@H]([C@@H](C)CC)NC(=O)[C@@H](CCCN)NC2=O)[C@@H](C)CC)CS1 [bacitracin] ({Ileψ(thiazoline)Cys}-L[dE]IK[dOrn]I[dF]H[dD]N; lactam 4-C)
